From US11702422B2, “Imidazopyridazines as modulators of IL-17” (Janssen Pharmaceutica NV, priority 2020, dated 2023) come the findings set out here.

As usually defined, the IC50 is the concentration at which inhibition is half-maximal. Lower therefore signals greater potency.

The target in assay [1] is IL-17A(FLAG-Tagged): IL-17RA(His-Tagged) (Homo sapiens, UniProt Q16552, K93Q). As to the kind of experiment: IL-17A(FLAG-Tagged): IL-17RA(His-Tagged) Binding Disruption Eu-HTRF Assay. Conditions: IL-17A/IL-17RA binding disruption, simple average if tested more than once. The method, boiled down: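 IC50 comes from a one-site competition fit of the HTRF 665/620 nm ratio. Compound dilutions (2-fold, 22 points) were held 1 h rt with FLAG-tagged IL-17A dimer, then His-tagged IL-17RA plus Eu-cryptate anti-FLAG and D2 anti-His antibodies were added for 2 h rt.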
For orientation: Time-resolved FRET reads energy transfer from a long-lived donor to a nearby acceptor.

For assay [2], the system named is IL-17A-induced G-CSF production in human normal keratinocyte (NHK). Put plainly: NHK Assay: IL-17A-induced G-CSF production in human normal keratinocytes. Format: cell-based. Particulars: 24 h, adult normal human keratinocytes, IL-17A 5 ng/mL, simple average if tested more than once. The method, boiled down: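 Adult normal human keratinocytes were seeded at 3000-4000 cells/well. Recombinant human IL-17A was pre-incubated 1 h at rt with titrated compound, then added to cells (final 5 ng/mL IL-17A, 0.2% DMSO, 5% FBS) for 24 h at 37° C. Supernatant G-CSF was measured by HTRF against a standard curve to give IC50.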

UniProt Q16552, sequence (Q16552 with tags, fused parts or gaps K93Q): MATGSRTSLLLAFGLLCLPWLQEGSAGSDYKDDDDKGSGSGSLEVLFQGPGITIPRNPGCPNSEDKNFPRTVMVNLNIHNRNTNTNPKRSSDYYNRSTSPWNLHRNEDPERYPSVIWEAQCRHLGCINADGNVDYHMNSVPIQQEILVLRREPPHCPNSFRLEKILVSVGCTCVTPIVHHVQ

Consider `O=C(CCC(F)(F)F)N[C@@H](c1cnn2cc([C@@H](NC(=O)c3ccnn3C(CF)CF)C3CCC(F)(F)CC3)nc2c1)C1CC1` [Example 69, N—((S)-(7-((R)-Cyclopropyl(4,4,4-trifluorobutanamido)methyl)imidazo[1,2-b]pyridazin-2-yl)(4,4-difluorocyclohexyl)methyl)-1-(1,3-difluoropropan-2-yl)-1H-pyrazole-5-carboxamide], for which the IC50 came out at 110 nM in assay [1] and 55 nM in assay [2] (Homo sapiens, Keratinocyte).
The corresponding values for `O=C(CCC(F)(F)F)N[C@@H](c1cnn2cc([C@@H](NC(=O)c3ncnn3CCOC(F)(F)F)C3CCC(F)(F)CC3)nc2c1)C1CC1` [Example 70, N—((S)-(7-((R)-Cyclopropyl(4,4,4-trifluorobutanamido)methyl)imidazo[1,2-b]pyridazin-2-yl)(4,4-difluorocyclohexyl)methyl)-1-(2-(trifluoromethoxy)ethyl)-1H-1,2,4-triazole-5-carboxamide] are 49 nM and 110 nM.
The corresponding values for `O=C(CCC(F)(F)F)N[C@@H](c1cnn2cc([C@@H](NC(=O)c3ccnc(CC(F)(F)F)c3)C3CCC(F)(F)CC3)nc2c1)C1CC1` [Example 74, N—((S)-(7-((R)-Cyclopropyl(4,4,4-trifluorobutanamido)methyl)imidazo[1,2-b]pyridazin-2-yl)(4,4-difluorocyclohexyl)methyl)-2-(2,2,2-trifluoroethyl)isonicotinamide] are 120 nM and 58 nM.
For `O=C(CCC(F)(F)F)N[C@@H](c1cnn2cc([C@@H](NC(=O)c3conc3C3CC3)C3CCC(F)(F)CC3)nc2c1)C1CC1` [Example 75, 3-Cyclopropyl-N—((S)-(7-((R)-cyclopropyl(4,4,4-trifluorobutanamido)methyl)imidazo[1,2-b]pyridazin-2-yl)(4,4-difluorocyclohexyl)methyl)isoxazole-4-carboxamide] the same measures were 50 nM and 92 nM.
Regarding `CC(C)c1nocc1C(=O)N[C@H](c1cn2ncc([C@H](NC(=O)CCC(F)(F)F)C3CC3)cc2n1)C1CCC(F)(F)CC1` [Example 76, N—((S)-(7-((R)-Cyclopropyl(4,4,4-trifluorobutanamido)methyl)imidazo[1,2-b]pyridazin-2-yl)(4,4-difluorocyclohexyl)methyl)-3-isopropylisoxazole-4-carboxamide], the IC50 in assay [1] worked out at 67 nM; in assay [2] (Homo sapiens, Keratinocyte), 67 nM.
In the case of `O=C(CCC(F)(F)F)N[C@@H](c1cnn2cc([C@@H](NC(=O)c3conc3CCC(F)(F)F)C3CCC(F)(F)CC3)nc2c1)C1CC1` [Example 77, N—((S)-(7-((R)-Cyclopropyl(4,4,4-trifluorobutanamido)methyl)imidazo[1,2-b]pyridazin-2-yl)(4,4-difluorocyclohexyl)methyl)-3-(3,3,3-trifluoropropyl)isoxazole-4-carboxamide], the concentration for half-maximal inhibition (IC50) in assay [1] came to 50 nM; in assay [2] (Homo sapiens, Keratinocyte), 60 nM.
Take `Cc1cc(C(=O)N[C@H](c2cn3ncc([C@H](NC(=O)CCC(F)(F)F)C4CC4)cc3n2)C2CCC(F)(F)CC2)n(C(C)C)n1` [Example 78, N—((S)-(7-((R)-Cyclopropyl(4,4,4-trifluorobutanamido)methyl)imidazo[1,2-b]pyridazin-2-yl)(4,4-difluorocyclohexyl)methyl)-1-isopropyl-3-methyl-1H-pyrazole-5-carboxamide]: the IC50 in assay [1] amounted to 260 nM; in assay [2] (Homo sapiens, Keratinocyte) it was 330 nM.
For `Cc1nocc1C(=O)N[C@H](c1cn2ncc([C@H](NC(=O)CCC(F)(F)F)C3CC3)cc2n1)C1CCC(F)(F)CC1` [Example 79, N—((S)-(7-((R)-Cyclopropyl(4,4,4-trifluorobutanamido)methyl)imidazo[1,2-b]pyridazin-2-yl)(4,4-difluorocyclohexyl)methyl)-3-methylisoxazole-4-carboxamide] the same measures were 84 nM and 150 nM.
For `Cc1noc(C)c1C(=O)N[C@H](c1cn2ncc([C@H](NC(=O)CCC(F)(F)F)C3CC3)cc2n1)C1CCC(F)(F)CC1` [Example 80, N—((S)-(7-((R)-Cyclopropyl(4,4,4-trifluorobutanamido)methyl)imidazo[1,2-b]pyridazin-2-yl)(4,4-difluorocyclohexyl)methyl)-3,5-dimethylisoxazole-4-carboxamide] the same measures were 17000 nM and > 20000 nM.
For `Cc1noc(C(C)C)c1C(=O)N[C@H](c1cn2ncc([C@H](NC(=O)CCC(F)(F)F)C3CC3)cc2n1)C1CCC(F)(F)CC1` [Example 81, N—((S)-(7-((R)-Cyclopropyl(4,4,4-trifluorobutanamido)methyl)imidazo[1,2-b]pyridazin-2-yl)(4,4-difluorocyclohexyl)methyl)-5-isopropyl-3-methylisoxazole-4-carboxamide] the same measures were 5600 nM and > 20000 nM.
For `CCc1noc(C)c1C(=O)N[C@H](c1cn2ncc([C@H](NC(=O)CCC(F)(F)F)C3CC3)cc2n1)C1CCC(F)(F)CC1` [Example 82, N—((S)-(7-((R)-Cyclopropyl(4,4,4-trifluorobutanamido)methyl)imidazo[1,2-b]pyridazin-2-yl)(4,4-difluorocyclohexyl)methyl)-3-ethyl-5-methylisoxazole-4-carboxamide], the concentration for half-maximal inhibition (IC50) is 3000 nM in assay [1] and > 20000 nM in assay [2] (Homo sapiens, Keratinocyte).
For `CCc1nocc1C(=O)N[C@H](c1cn2ncc([C@H](NC(=O)CCC(F)(F)F)C3CC3)cc2n1)C1CCC(F)(F)CC1` [Example 83, N—((S)-(7-((R)-Cyclopropyl(4,4,4-trifluorobutanamido)methyl)imidazo[1,2-b]pyridazin-2-yl)(4,4-difluorocyclohexyl)methyl)-3-ethylisoxazole-4-carboxamide] the same measures were 33 nM and 60 nM.
The corresponding values for `O=C(CCC(F)(F)F)N[C@@H](c1cnn2cc([C@@H](NC(=O)c3cnoc3C3CC3)C3CCC(F)(F)CC3)nc2c1)C1CC1` [Example 84, 5-Cyclopropyl-N—((S)-(7-((R)-cyclopropyl(4,4,4-trifluorobutanamido)methyl)imidazo[1,2-b]pyridazin-2-yl)(4,4-difluorocyclohexyl)methyl)isoxazole-4-carboxamide] are 80 nM and 160 nM.
The corresponding values for `CC(C)n1cncc1C(=O)N[C@H](c1cn2ncc([C@H](NC(=O)CCC(F)(F)F)C3CC3)cc2n1)C1CCC(F)(F)CC1` [Example 85, N—((S)-(7-((R)-Cyclopropyl(4,4,4-trifluorobutanamido)methyl)imidazo[1,2-b]pyridazin-2-yl)(4,4-difluorocyclohexyl)methyl)-1-isopropyl-1H-imidazole-5-carboxamide] are 250 nM and 340 nM.
Consider `CC(C)c1ocnc1C(=O)N[C@H](c1cn2ncc([C@H](NC(=O)CCC(F)(F)F)C3CC3)cc2n1)C1CCC(F)(F)CC1` [Example 86, N—((S)-(7-((R)-Cyclopropyl(4,4,4-trifluorobutanamido)methyl)imidazo[1,2-b]pyridazin-2-yl)(4,4-difluorocyclohexyl)methyl)-5-isopropyloxazole-4-carboxamide], for which the 50% inhibitory concentration (IC50) came out at 210 nM in assay [1] and 350 nM in assay [2] (Homo sapiens, Keratinocyte).
The corresponding values for `CC(C)c1snnc1C(=O)N[C@H](c1cn2ncc([C@H](NC(=O)CCC(F)(F)F)C3CC3)cc2n1)C1CCC(F)(F)CC1` [Example 87, N—((S)-(7-((R)-Cyclopropyl(4,4,4-trifluorobutanamido)methyl)imidazo[1,2-b]pyridazin-2-yl)(4,4-difluorocyclohexyl)methyl)-5-isopropyl-1,2,3-thiadiazole-4-carboxamide] are 33 nM and 95 nM.
The corresponding values for `CCc1oncc1C(=O)N[C@H](c1cn2ncc([C@H](NC(=O)CCC(F)(F)F)C3CC3)cc2n1)C1CCC(F)(F)CC1` [Example 88, N—((S)-(7-((R)-Cyclopropyl(4,4,4-trifluorobutanamido)methyl)imidazo[1,2-b]pyridazin-2-yl)(4,4-difluorocyclohexyl)methyl)-5-ethylisoxazole-4-carboxamide] are 56 nM and 110 nM.
As to `CC(C)c1oncc1C(=O)N[C@H](c1cn2ncc([C@H](NC(=O)CCC(F)(F)F)C3CC3)cc2n1)C1CCC(F)(F)CC1` [Example 89, N—((S)-(7-((R)-Cyclopropyl(4,4,4-trifluorobutanamido)methyl)imidazo[1,2-b]pyridazin-2-yl)(4,4-difluorocyclohexyl)methyl)-5-isopropylisoxazole-4-carboxamide], the IC50 in assay [1] was found to be 43 nM; in assay [2] it was 65 nM.
Regarding `O=C(CCC(F)(F)F)N[C@@H](c1cnn2cc([C@@H](NC(=O)[C@@H]3C[C@H]3F)C3CCC(F)(F)CC3)nc2c1)C1CC1` [Example 90, (1S,2R)—N—((S)-(7-((R)-Cyclopropyl(4,4,4-trifluorobutanamido)methyl)imidazo[1,2-b]pyridazin-2-yl)(4,4-difluorocyclohexyl)methyl)-2-fluorocyclopropane-1-carboxamide], the IC50 in assay [1] was 1500 nM; in assay [2] (Homo sapiens, Keratinocyte), ~20000 nM.
For `O=C(CCC(F)(F)F)N[C@@H](c1cnn2cc([C@@H](NC(=O)c3cnnn3CC3CCC3(F)F)C3CCC(F)(F)CC3)nc2c1)C1CC1` (stereo partly drawn) [Example 91, N—((S)-(7-((R)-Cyclopropyl(4,4,4-trifluorobutanamido)methyl)imidazo[1,2-b]pyridazin-2-yl)(4,4-difluorocyclohexyl)methyl)-1-((2,2-difluorocyclobutyl)methyl)-1H-1,2,3-triazole-5-carboxamide] the same measures were 92 nM and 120 nM.
